Several values for one entry are separate records, joined by “and”; a condition that tells them apart may be missing. Equal values may be shown once.
Key:
BRD4 [1] = target: T1, BRD4 (Homo sapiens, UniProt O60885); assay: Differential Scanning Fluorimetry (DSF), stability of BRD4 upon ligand binding; details: for ΔTm at 4 µM / DSF ΔTm (° C.): 100 μM protein, 4 μM compound and 2% DMSO; for IC50: estimated
Description: (§1) DSF=Differential Scanning Fluorimetry; provides a measure of the increased stability of BRD4 upon ligand binding The DSF experiment was run at 100 μM protein, 4 μM compound and 2% DMSO.

MM.1S cells = assay: MM.1S cell survival, MTT assay; assay type: cell-based; details: Homo sapiens, MM1.S, 72 h, 72 hours compound exposure
HEK293 = HEK293 cell IC50; assay type: cell-based; details: Homo sapiens
BRD4-1 = target: T2, BRD4-1 (Homo sapiens, UniProt O60885); assay: BRD4-1 IC50; assay type: binding
T2 construct: BRD4-1; purchased

MV4-11 AML cells = assay: MV-4-11 cell IC50 (antiproliferative activity); assay type: cell-based; details: Homo sapiens
Description: Cellular activity of promising compounds is assessed using MM.1S and MV4-11 AML cells using c-Myc levels as biomarker (6-12 hr treatment) and antiproliferative activity (48-72 hr treatment) as described (Ciceri et al., Dual kinase-bromodomain inhibitors for rationally designed polypharmacology. Nat Chem Biol 2014).

NCI-H2052 = NCI-H2052 cell IC50; assay type: cell-based; details: Homo sapiens
UKE-1 = UKE-1 cell IC50; assay type: cell-based; details: UKE1
BRDT-1 = target: T3, BRDT-1 (Homo sapiens, UniProt Q58F21); assay: BRDT-1 IC50; assay type: binding
T3 construct: BRDT-1; purchased

SAOS-2 = SAOS-2 cell IC50; assay type: cell-based; details: Homo sapiens
[2] = Precipitation in DSF buffer; assay type: physicochemical
Description: as §1

JAK2 = target: T4, JAK2 (Homo sapiens, UniProt O60674); assay: JAK2 IC50 (RB, commercial kinase panel); assay type: biochemical
T4 construct: purchased
T4 sequence (O60674 whole entry): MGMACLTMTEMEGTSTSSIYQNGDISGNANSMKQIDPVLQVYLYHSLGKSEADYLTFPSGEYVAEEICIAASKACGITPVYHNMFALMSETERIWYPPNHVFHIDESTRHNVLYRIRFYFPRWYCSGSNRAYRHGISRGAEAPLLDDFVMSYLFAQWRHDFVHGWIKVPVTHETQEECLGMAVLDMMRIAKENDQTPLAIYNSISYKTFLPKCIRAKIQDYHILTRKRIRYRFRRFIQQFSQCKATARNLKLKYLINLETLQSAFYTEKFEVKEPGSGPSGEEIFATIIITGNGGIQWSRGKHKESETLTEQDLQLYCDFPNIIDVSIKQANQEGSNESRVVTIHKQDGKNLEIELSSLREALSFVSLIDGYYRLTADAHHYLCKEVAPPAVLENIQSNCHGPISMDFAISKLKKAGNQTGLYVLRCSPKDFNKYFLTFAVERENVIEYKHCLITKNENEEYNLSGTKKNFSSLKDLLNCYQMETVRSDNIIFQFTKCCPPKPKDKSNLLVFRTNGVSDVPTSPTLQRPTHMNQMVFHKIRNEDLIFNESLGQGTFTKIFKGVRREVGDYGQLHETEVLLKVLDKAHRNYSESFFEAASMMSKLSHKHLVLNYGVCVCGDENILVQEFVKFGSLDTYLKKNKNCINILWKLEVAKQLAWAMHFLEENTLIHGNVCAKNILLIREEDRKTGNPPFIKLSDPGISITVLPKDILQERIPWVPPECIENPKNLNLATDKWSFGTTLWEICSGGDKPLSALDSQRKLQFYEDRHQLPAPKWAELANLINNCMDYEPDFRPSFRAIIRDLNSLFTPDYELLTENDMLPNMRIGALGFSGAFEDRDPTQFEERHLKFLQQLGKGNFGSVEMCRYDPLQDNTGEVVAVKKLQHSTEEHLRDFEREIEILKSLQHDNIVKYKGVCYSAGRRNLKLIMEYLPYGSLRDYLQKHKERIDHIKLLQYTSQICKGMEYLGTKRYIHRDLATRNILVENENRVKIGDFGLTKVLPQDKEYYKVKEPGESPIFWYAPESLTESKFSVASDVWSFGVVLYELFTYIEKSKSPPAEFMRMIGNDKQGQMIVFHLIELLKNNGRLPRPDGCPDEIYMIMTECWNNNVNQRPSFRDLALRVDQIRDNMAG

BRD2 = target: T5, BRD2 (Homo sapiens, UniProt P25440); assay: BRD2 IC50 (RB, commercial BRD panel); assay type: binding
T5 construct: purchased
T5 sequence (P25440 whole entry): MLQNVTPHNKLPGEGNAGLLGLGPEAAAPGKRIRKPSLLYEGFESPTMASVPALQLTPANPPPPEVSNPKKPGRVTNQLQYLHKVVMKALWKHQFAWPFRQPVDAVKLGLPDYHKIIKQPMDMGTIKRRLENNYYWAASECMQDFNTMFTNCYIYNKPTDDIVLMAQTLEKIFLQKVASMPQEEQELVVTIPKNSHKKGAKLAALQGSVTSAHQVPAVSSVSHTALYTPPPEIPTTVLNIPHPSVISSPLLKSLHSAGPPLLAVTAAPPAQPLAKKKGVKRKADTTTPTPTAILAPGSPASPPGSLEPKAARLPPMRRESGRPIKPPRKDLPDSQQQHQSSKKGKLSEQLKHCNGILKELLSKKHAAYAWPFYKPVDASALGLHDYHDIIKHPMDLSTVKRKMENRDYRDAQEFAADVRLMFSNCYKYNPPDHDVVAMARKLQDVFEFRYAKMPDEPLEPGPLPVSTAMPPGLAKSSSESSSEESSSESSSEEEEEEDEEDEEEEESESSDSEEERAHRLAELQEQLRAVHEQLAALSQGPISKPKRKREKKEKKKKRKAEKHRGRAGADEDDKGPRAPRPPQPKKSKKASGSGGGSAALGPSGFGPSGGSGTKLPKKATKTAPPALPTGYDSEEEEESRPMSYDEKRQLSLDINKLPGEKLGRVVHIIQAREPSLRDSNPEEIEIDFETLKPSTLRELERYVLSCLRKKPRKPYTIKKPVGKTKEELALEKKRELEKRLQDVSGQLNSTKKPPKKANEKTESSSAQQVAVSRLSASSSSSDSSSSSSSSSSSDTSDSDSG

BRDT = target: T6, BRDT (Homo sapiens, UniProt Q58F21); assay: BRDT IC50 (RB, commercial BRD panel); assay type: binding
T6 construct: purchased

BRD4 [3] = target: T1, BRD4; assay: BRD4 IC50 (RB, commercial BRD panel); assay type: binding; details: read-out: BRD4 IC50
FLT3 = target: T7, FLT3 (Homo sapiens, UniProt P36888); assay: FLT3 IC50 (RB, commercial kinase panel); assay type: biochemical
T7 construct: purchased
T7 sequence (P36888 27-993): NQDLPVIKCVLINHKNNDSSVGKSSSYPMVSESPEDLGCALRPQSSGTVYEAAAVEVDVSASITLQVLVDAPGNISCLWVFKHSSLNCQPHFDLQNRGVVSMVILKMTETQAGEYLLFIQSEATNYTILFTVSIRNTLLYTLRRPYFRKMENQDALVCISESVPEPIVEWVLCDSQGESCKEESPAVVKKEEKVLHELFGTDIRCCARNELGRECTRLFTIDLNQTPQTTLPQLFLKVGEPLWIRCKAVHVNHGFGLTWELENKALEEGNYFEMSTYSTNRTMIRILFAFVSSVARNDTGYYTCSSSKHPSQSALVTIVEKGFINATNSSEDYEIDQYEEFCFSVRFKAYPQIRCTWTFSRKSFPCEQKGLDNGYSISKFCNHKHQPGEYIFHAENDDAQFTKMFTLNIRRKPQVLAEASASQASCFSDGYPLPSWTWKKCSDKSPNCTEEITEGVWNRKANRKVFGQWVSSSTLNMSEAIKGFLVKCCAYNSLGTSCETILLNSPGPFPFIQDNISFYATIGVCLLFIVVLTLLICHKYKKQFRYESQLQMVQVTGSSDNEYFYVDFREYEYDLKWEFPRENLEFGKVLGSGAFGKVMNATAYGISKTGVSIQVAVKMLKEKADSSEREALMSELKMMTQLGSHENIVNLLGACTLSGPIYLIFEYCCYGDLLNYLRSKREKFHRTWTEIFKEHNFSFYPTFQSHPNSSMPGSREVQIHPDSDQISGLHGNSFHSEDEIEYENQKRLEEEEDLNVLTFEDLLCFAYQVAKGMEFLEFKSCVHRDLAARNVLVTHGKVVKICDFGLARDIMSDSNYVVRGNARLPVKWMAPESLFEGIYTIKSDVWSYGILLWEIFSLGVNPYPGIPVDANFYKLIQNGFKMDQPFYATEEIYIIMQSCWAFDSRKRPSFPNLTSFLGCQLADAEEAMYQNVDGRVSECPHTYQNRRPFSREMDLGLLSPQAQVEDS

BRD3 = target: T8, BRD3 (Homo sapiens, UniProt Q15059); assay: BRD3 IC50 (RB, commercial BRD panel); assay type: binding
T8 construct: purchased
T8 sequence (Q15059 whole entry): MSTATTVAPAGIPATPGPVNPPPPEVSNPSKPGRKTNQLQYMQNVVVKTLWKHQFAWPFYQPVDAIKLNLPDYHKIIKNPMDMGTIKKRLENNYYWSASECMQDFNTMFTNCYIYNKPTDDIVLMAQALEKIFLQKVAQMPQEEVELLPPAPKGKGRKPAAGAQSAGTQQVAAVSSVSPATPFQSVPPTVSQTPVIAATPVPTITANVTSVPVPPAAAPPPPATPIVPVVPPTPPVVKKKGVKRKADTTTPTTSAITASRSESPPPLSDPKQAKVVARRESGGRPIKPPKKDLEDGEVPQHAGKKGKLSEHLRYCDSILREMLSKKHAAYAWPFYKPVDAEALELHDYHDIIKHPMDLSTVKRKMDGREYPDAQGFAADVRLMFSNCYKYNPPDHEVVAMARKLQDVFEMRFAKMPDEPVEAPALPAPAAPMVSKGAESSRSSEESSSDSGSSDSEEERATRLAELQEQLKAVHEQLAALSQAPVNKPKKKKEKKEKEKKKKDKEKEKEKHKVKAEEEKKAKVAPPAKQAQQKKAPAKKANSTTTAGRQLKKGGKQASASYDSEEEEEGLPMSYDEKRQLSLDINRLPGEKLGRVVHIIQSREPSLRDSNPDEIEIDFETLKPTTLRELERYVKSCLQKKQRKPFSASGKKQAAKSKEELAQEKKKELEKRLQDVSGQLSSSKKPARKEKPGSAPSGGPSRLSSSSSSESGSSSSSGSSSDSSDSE

In the case of `Cc1cnc(Nc2ccc(N3CCN(C)CC3)cc2)nc1Nc1cccc(NS(=O)(=O)C2CC2)c1`, the ΔTm at 4 µM (BRD4 [1]) is reported as 6.7 ± 0.11 °C, the IC50 (BRD4 [1]) is reported as 130 nM and the IC50 (MM.1S cells) is reported as 600 nM. The IC50 (HEK293) was 1000 nM.

With `COc1cc(Nc2nc(Nc3ccc(N4CCN(C)CC4)cc3)ncc2Cl)ccc1Cl` the ΔTm at 4 µM (BRD4 [1]) was 4.8 ± 0.058 °C, the IC50 (BRD4 [1]) was 540 nM and the IC50 (MM.1S cells) was 450 nM. For the same compound, the IC50 (HEK293) was 1400 nM.

`Cc1cnc(Nc2ccc(C(=O)NC3CCN(C)CC3)c(F)c2)nc1Nc1ccc(Cl)c(NS(=O)(=O)C(C)(C)C)c1` showed an IC50 (BRD4-1) of 10 nM, a ΔTm at 4 µM (BRD4 [1]) of 12.5 ± 0.165 °C and an IC50 (BRD4 [1]) of 1.3 nM. The IC50 (MV4-11 AML cells) was 38 nM, the IC50 (NCI-H2052) was over 10000 nM and the IC50 (UKE-1) was 220 nM. For the same compound, the IC50 (BRDT-1) was 23 nM.

In the case of `Cc1cnc(Nc2ccc(N3CCN(C)CC3)cc2)nc1Nc1cccc(S(=O)(=O)NC(C)(C)C)c1` [drawing 27], the “DSF ΔTm (° C.)” value (BRD4 [1]) is reported as 7.55 ± 0.154 °C, the ΔTm at 4 µM (BRD4 [1]) is reported as 6.83 ± 0.129 °C and the IC50 (SAOS-2) is reported as 425 nM.

`CN1CCN(c2ccc(Nc3ncc(Cl)c(Nc4ccc(Cl)c(NS(=O)(=O)C(C)(C)C)c4)n3)cc2F)CC1` showed a ΔTm at 4 µM (BRD4 [1]) of 5.22 ± 0.065 °C, an IC50 (BRD4 [1]) of 835 nM and an IC50 (MM.1S cells) of 110 nM. For the same compound, the “Precipitation in DSF buffer” value [2] was “Precipitation observed in DSF buffer”.

With `Cc1cnc(Nc2ccc(N3CCN(C)CC3)cc2)nc1Nc1ccc(Cl)c(NS(=O)(=O)C(C)(C)C)c1` [drawing 109] the ΔTm at 4 µM (BRD4 [1]) was 9.57 ± 0.086 °C, the IC50 (BRD4 [1]) was 10 nM and the IC50 (MV4-11 AML cells) was 186 nM. The IC50 (JAK2) was 11.2 nM, the IC50 (MM.1S cells) was 74 nM and the IC50 (BRD2) was 81.4 nM. For the same compound, the IC50 (BRDT) was 27.8 nM, the IC50 (BRD4 [3]) was 4.04 nM and the IC50 (FLT3) was 9.71 nM. The IC50 (SAOS-2) was 567 nM, the IC50 (UKE-1) was 512 nM and the IC50 (BRD3) was 16.5 nM.

Work on `CN1CCN(c2ccc(Nc3ncc(Cl)c(Nc4cccc(S(=O)(=O)NC5CC5)c4)n3)cc2)CC1` yielded a ΔTm at 4 µM (BRD4 [1]) of 6.4 ± 0.15 °C, an IC50 (BRD4 [1]) of 160 nM and an IC50 (MM.1S cells) of 880 nM. The IC50 (HEK293) was 1800 nM.

With `Cc1cnc(Nc2ccc(C(=O)NC3CCN(C)CC3)cc2)nc1Nc1ccc(Cl)c(NS(=O)(=O)C(C)(C)C)c1` the “DSF ΔTm (° C.)” value (BRD4 [1]) was 11 ± 0.12 11 ± 0.12 °C, the ΔTm at 4 µM (BRD4 [1]) was 11 ± 0.12 °C and the IC50 (BRD4 [1]) was 6.1 nM and 4.6 nM. For the same compound, the IC50 (MV4-11 AML cells) was 71 nM and the IC50 (UKE-1) was 1600 nM.

In the case of `CN1CCN(c2ccc(Nc3nc4c(c(Nc5cccc(NS(=O)(=O)C(C)(C)C)c5)n3)CCCC4)cc2)CC1`, the ΔTm at 4 µM (BRD4 [1]) is reported as 6.9 ± 0.038 °C, the IC50 (BRD4 [1]) is reported as 110 nM and the IC50 (MM.1S cells) is reported as 1700 nM. The IC50 (SAOS-2) was 2500 nM.

`Cc1cnc(Nc2ccc(N3CCN(C)CC3)cc2)nc1Nc1cccc(S(=O)(=O)NC2CC2)c1` gave a ΔTm at 4 µM (BRD4 [1]) of 7.3 ± 0.099 °C, an IC50 (BRD4 [1]) of 79 nM and an IC50 (MM.1S cells) of 1200 nM. For the same compound, the IC50 (HEK293) was 1200 nM.

— patent US10526291B2, “Potent dual BRD4-kinase inhibitors as cancer therapeutics” (H. Lee Moffitt Cancer Center and Research Institute, Inc., priority 2014, dated 2020)
